Publication PMC4494927, “Discovery of a small molecule targeting SET-PP2A interaction to overcome BCR-ABLT315I mutation of chronic myeloid leukemia” (Oncotarget, 2015)

Legend:
BCR-ABL = assay: Western blot of BCR-ABL expression in K562 cells; assay type: cell-based, human
Description: Protein samples (40 μg) were resolved on SDS-PAGE gels, transferred onto PVDF membranes (Millipore) and incubated overnight with primary antibodies to β-tubulin, BCR-ABL, p-BCR-ABL, SET, PP2Ac and p-PP2Ac. The membranes were incubated with horseradish peroxidase (HRP)-conjugated secondary antibody for 1 h, and the bands were visualized using an ECL detection kit following the manufacturer's instructions. For immunoprecipitation, cells were lysed in 20 mM Tris-HCl (pH 7.0), 150 mM NaCl, 1 mM EDTA, 1 mM MgCl and 0.5% NP-40 supplemented with a cocktail of protease and phosphatase inhibitors (Roche). Lysates (200 μg) were incubated with primary antibodies (1 μg) against SET or PP2Ac at 4 °C for 10 h, protein A/G plus agarose beads were then added for immunoprecipitation overnight at 4 °C. After wash, the immunoprecipitated proteins were separated by SDS-PAGE and analyzed by Western blotting.

K562 cells = assay: Cytotoxicity assay (CellTiter-Glo); assay type: cell-based, human
Description: Twenty types of tumor cell lines were seeded at 4000 cells per well in 96-well plates. […] Cell viability was measured with the CellTiter-Glo Luminescent Cell Viability Assay (Promega) according to the manufacturer's instructions. Luminescence was measured using an EnVision Multilabel Plate Reader (Perkin-Elmer). The cytotoxicity of TGI1002 was expressed as the percentage of luminescence relative to that of untreated cells.

[1] = target: T1, recombinant human SET protein (Homo sapiens, UniProt Q01105); assay: Microscale thermophoresis (MST) binding to NT647-labeled SET; conditions: 15 μM NT647-labeled SET, PBS pH 8.0, 25 °C
T1 construct: Genes encoding the full length of human SET (GenBank No.: AAA60318.1) was synthesized; made in house; host or cells: E. coli (pET-21a)
T1 sequence (Q01105 1-277 isoform Q01105-2): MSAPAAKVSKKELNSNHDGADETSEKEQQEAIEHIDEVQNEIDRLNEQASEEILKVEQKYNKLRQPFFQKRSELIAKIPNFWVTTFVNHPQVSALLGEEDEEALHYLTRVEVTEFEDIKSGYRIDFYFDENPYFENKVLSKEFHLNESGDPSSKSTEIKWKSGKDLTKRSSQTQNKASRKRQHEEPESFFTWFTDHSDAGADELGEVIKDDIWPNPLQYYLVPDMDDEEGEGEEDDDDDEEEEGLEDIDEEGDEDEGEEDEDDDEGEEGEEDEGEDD
Description: Thermophoresis analysis was performed during 30 s on a NanoTemper Monolith NT.115 instrument (20% LED, 40% MST power) at 25 °C.

BaF3-p210^T315I cells = assay: Survival study, intravenously injected tumor cells; assay type: in vivo, BALB/c mice; conditions: vehicle 25.5 days
Description: In survival study, BaF3-p210^T315I cells were injected into the tail vein of BALB/c mice (100 μL of a 1 × 10^7 cells suspension in serum free medium). […] Moribund animals were sacrificed as per institutional and national guidelines. Survival data were analyzed by the Kaplan Meier method and compared using the log-rank test.

PP2A = assay: PP2Ac immunoprecipitation phosphatase assay in K562 cells; assay type: cell-based, human
Description: PP2A assay from whole cell lysates was carried out using commercial PP2Ac immunoprecipitation phosphatase assay kit (Millipore). Briefly, 200 μg protein lysates prepared as described above, 4 μg PP2Ac-specific antibody, and 40 μL protein A-agarose were added to TBS buffer (20 mM Tris-HCl, 150 mM NaCl, and 0.1% Tween 20) to a final volume of 500 μL and immunoprecipitation was carried out at 4 °C for 2 h. The immunoprecipitates were used in the phosphatase reaction following the manufacturer's protocol.

[2] = test system: BaF3-p210^T315I tumor xenografts; assay: In vivo anti-tumor efficacy, subcutaneous xenograft; design: species or system BALB/c mice; conditions: TGI1002 30, 45, 60 mg/kg; imatinib, ponatinib 10 mg/kg; i.p. daily
Description: BABL/c male mice from SLRC Experimental Animal Center were bred under pathogen-free conditions and were used for experiments at 6-8 weeks of age. Animal experiments were performed according to institutional and national guidelines. BaF3-p210^T315I cells were implanted subcutaneously into the right flank of nude mice (200 μL of a 1 × 10^7cells suspension in serum free medium). When tumors became large enough for caliper measurement, tumor volumes were calculated as (length × width^2) × 0.5. […] At the end of the experiments, tumors were dissected and photographed, and wet weights of each tumor were measured.

[3] = target: T2, recombinant human SET protein in full length (human, UniProt Q01105-2 1-277, labeled with RED fluorescent dye NT-647-NHS); assay: MST; serial dilutions of the peptide (up to 2 mM) mixed with 15 μM NT647-labeled SET protein, 10 min at room temperature, 20 mM PBS pH 8.0, 25 °C, Monolith NT.115 (20% LED, 40% MST power); conditions: both partners purified
T2 construct: human SET, full length, gene synthesized after GenBank AAA60318.1 and subcloned into pET-21a; also called SET oncoprotein; NT647-labeled SET protein
T2 sequence (Q01105 other isoform, or with tags, fused parts or gaps): as the sequence (Q01105 1-277 isoform Q01105-2) above

In the case of `CO[C@H]1/C=C\C=C(/C)C(=O)NC2=CC(=O)C(NCCN(C)C)=C(C[C@@H](C)C[C@H](OC)[C@H](O)[C@@H](C)/C=C(\C)[C@@H]1OC(N)=O)C2=O` [17-DMAG, reference compound], the “expression level of BCR-ABL” value (BCR-ABL) is reported as “significantly degraded”.

For `Cc1ccc(NC(=O)c2cccc(CN3CCN(CC(=O)O)CC3)c2)cc1Oc1nccc(-c2cccnc2)n1` [TGI1002-COOH], the “cytotoxicity compared to the parent compound TGI1002” value (K562 cells) was “comparable cytotoxicity”.

For `Cc1ccc(NC(=O)c2ccc(CN3CCN(C)CC3)cc2)cc1Nc1nccc(-c2cccnc2)n1` [imatinib, reference compound], the Kd value [1] was “did not bind SET to give a meaningful Kd value” and the median survival (BaF3-p210^T315I cells; 10 mg/kg i.p. once daily from day 5) was 25 days.

`C=C1[C@@H](O)[C@@H]2O[C@]3(CC[C@H](/C=C/[C@@H](C)[C@@H]4CC(C)=C[C@@]5(O[C@H](C[C@@](C)(O)C(=O)O)CC[C@H]5O)O4)O3)CC[C@H]2O[C@@H]1[C@@H](O)C[C@H](C)[C@H]1O[C@@]2(CCCCO2)CC[C@H]1C` [okadaic acid, reference compound] was tested, and the “PP2A activity compared to control” value (PP2A) was “decreased significantly”.

With `Cc1ccc(C(=O)Nc2ccc(CN3CCN(C)CC3)c(C(F)(F)F)c2)cc1C#Cc1cnc2cccnn12` [ponatinib, reference compound] the “final tumor volume and weight compared to vehicle group” value [2] was “markedly lower” and the median survival (BaF3-p210^T315I cells) was 37 days.

B1: ApoE-mimetic peptide COG112 (peptide)
peptide: Ac-LRVRLASHLRKLRKRLL-NH2
notes: source: synthetic peptide (ChinaPeptides Co., Ltd, > 95% purity)
B1 showed a Kd [3] of 4.4 ± 0.39 µM.
